Experimental data from patent US10512266B2, “Herbicidal compositions based on 3-phenyluracils and N-[[4-[cyclopropylamino)-carbonyl]phenyl]sulfonyl]-2-methoxybenzamide” (BASF SE, priority 2005, dated 2019).

Tests used:
Conditions in all cases: safener II alone, 150 g/ha
TRZAS = experiment: Greenhouse post-emergence test, damage to crop plant TRZAS; type: in vivo, spring wheat
Excerpt: (§1) For the post-emergence treatment, the test plants were first grown to a height of 3 to 20 cm, depending on the plant habit, and only then treated. Here, the herbicidal compositions were suspended or emulsified in water as distribution medium and sprayed using finely distributing nozzles. The respective component I was formulated as a 12% by weight strength emulsion concentrate, and component II as a 10% by weight suspension concentrate. Optionally components III can be used in their appropriate available formulation types. The components I, II and optionally III were introduced to the spray liquid with the amount of solvent system used for applying the active compound. The test period extended over 21 days. During this time, the plants were tended, and their response to the treatments with active compound was evaluated. The evaluation for the damage caused by the chemical compositions was carried out using a scale from 0 to 100%, compared to the untreated control plants. Here, 0 means no damage and 100 means complete destruction of the plants. […]

HORVW = experiment: Greenhouse post-emergence test, damage to crop plant HORVW; type: in vivo, winter barley
Excerpt: as §1

ZEAMX = experiment: Greenhouse post-emergence test, damage to crop plant ZEAMX; type: in vivo, corn
Excerpt: as §1

POLCO = experiment: Greenhouse post-emergence test, herbicidal action against POLCO; type: in vivo, wild buckwheat
Excerpt: (§2) For the post-emergence treatment, the test plants were first grown to a height of 3 to 20 cm, depending on the plant habit, and only then treated. Here, the herbicidal compositions were suspended or emulsified in water as distribution medium and sprayed using finely distributing nozzles. The respective component I was formulated as a 12% by weight strength emulsion concentrate, and component II as a 10% by weight suspension concentrate. Optionally components III can be used in their appropriate available formulation types. The components I, II and optionally III were introduced to the spray liquid with the amount of solvent system used for applying the active compound. The test period extended over 21 days. During this time, the plants were tended, and their response to the treatments with active compound was evaluated. The evaluation for the damage caused by the chemical compositions was carried out using a scale from 0 to 100%, compared to the untreated control plants. Here, 0 means no damage and 100 means complete destruction of the plants. [table]

CHEAL = experiment: Greenhouse post-emergence test, herbicidal action against CHEAL; type: in vivo, lambsquaters
Excerpt: as §2

ABUTH = experiment: Greenhouse post-emergence test, herbicidal action against ABUTH; type: in vivo, velvetleaf
Excerpt: as §2

AMARE = experiment: Greenhouse post-emergence test, herbicidal action against AMARE; type: in vivo, common amaranth
Excerpt: as §2

COc1ccccc1C(=O)NS(=O)(=O)c1ccc(C(=O)NC2CC2)cc1 [II, N-[[4-[(cyclopropylamino)carbonyl]phenyl]sulfonyl]-2-methoxybenzamide]
has not shown herbicidal activity: herbicidal activity on POLCO (POLCO) | herbicidal activity on CHEAL (CHEAL) | herbicidal activity on ABUTH (ABUTH) | herbicidal activity on AMARE (AMARE)
has not shown damaging effect: damaging effect on TRZAS (TRZAS) | damaging effect on HORVW (HORVW) | damaging effect on ZEAMX (ZEAMX)
